Measured values published in patent publication US6916905B2, “Dmt-Tic di-and tri-peptidic derivatives and related compositions and methods of use” (The United States of America as represented by the …, priority 2000, dated 2005).
“Also recorded” adds a separate entry of the source.

Experiments:
δ receptors [1] = molecular target: δ receptors (Mus musculus, UniProt P32300); test: MVD functional pharmacological bioassay (Example 75); parameters: A single MVD was suspended in 4 ml modified Kreb's solution; from tissue; host or cells: mouse vas deferens
δ receptors (Mus musculus, UniProt P32300), sequence (P32300 whole entry): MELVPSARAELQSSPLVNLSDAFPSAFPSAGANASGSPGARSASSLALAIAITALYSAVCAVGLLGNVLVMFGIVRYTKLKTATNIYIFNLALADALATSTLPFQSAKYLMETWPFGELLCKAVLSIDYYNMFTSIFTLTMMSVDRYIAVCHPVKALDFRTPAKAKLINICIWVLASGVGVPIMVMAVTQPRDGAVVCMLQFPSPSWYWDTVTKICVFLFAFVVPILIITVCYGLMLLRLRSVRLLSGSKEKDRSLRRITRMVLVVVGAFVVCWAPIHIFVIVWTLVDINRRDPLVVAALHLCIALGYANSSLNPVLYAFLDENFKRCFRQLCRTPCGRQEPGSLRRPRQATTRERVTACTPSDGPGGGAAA

δ receptors [2] = molecular target: T1, δ receptors (Rattus norvegicus, UniProt P33533); test: Radio-receptor competition assay, rat brain synaptosomes, [3H]DPDPE (Example 74); format: binding; settings: for μ/δ: selectivity Kiμ/Kiδ
T1 construct: assayed with a rat brain synaptosomal preparation (P2); from tissue; host or cells: rat brain P2 synaptosomes
T1 sequence (P33533 whole entry): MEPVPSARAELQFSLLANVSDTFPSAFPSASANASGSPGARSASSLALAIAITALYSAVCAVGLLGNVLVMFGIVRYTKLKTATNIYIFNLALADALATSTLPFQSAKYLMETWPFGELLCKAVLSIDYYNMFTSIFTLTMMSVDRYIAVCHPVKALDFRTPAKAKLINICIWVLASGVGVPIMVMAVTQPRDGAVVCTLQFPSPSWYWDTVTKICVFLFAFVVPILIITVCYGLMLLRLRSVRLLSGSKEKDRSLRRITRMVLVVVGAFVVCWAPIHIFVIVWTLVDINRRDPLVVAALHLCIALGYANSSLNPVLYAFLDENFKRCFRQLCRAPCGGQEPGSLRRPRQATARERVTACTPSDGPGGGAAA
Description: (§1) After 120 min incubation at room temperature (23-24° C.), the samples were rapidly filtered through Whatman GF/C glass fiber filers and washed three times with 2 ml ice-cold 0.05 M Tris, pH 7.4-7.5, containing 0.1% BSA. Presoaking filters in 0.1% polyethylenimine is only required in assays with peptides carrying an overall positive charge, such as dynorphin or nociceptin (Guerrini et al., J. Med. Chem., 40: 1789-1793 (1997)). Non-specific binding was determined using 2 μM unlabeled DPDPE or DAGO for δ or μ assays, respectively. The Ki data, determined according to Cheng and Prusoff (Cheng et al., Biochem. Pharmacol., 22: 3099-3108 (1973)), represent the means±SE from 3 or more independent assays using at least 3 different synaptosome preparations and testing the analogues with 5-8 graded dosages over 2-3 orders of magnitude in concentration.

μ receptors [3] = molecular target: μ receptors (Cavia porcellus, UniProt P97266); test: Guinea pig ileum (GPI) functional bioassay (Example 48)
μ receptors (Cavia porcellus, UniProt P97266), sequence (P97266 whole entry, looked up): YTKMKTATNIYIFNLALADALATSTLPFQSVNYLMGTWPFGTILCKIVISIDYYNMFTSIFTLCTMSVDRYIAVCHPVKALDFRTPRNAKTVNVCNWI
Description: The functional bioactivity of the present inventive compounds was assessed using standard functional bioassays of δ and μ activity in MVD and GPI (Salvadori et al. (1995), supra; and Salvadori et al., J. Med. Chem. 36: 3748-3756 (1993)). […] Dose-response curves were obtained (Salvadori et al. (1995), supra) for both tissues. […] Data were derived from at least four independent tissue samples and dose-response curves from which the pA2 values were determined (Salvadori et al. (1997), supra) according to Arunlakshana and Schild (Br. J. Pharmacol. 14: 48-58 (1959)).

hMDR-1 = hMDR-1 (Homo sapiens, UniProt P08183); test: Calcein AM assay for Pgp in hMDR-1 transfected G-185 fibroblasts (Example 49); settings: for inhibition of hMDR-1 (Pgp), in words: calcein fluorescence
hMDR-1, sequence (P08183 whole entry): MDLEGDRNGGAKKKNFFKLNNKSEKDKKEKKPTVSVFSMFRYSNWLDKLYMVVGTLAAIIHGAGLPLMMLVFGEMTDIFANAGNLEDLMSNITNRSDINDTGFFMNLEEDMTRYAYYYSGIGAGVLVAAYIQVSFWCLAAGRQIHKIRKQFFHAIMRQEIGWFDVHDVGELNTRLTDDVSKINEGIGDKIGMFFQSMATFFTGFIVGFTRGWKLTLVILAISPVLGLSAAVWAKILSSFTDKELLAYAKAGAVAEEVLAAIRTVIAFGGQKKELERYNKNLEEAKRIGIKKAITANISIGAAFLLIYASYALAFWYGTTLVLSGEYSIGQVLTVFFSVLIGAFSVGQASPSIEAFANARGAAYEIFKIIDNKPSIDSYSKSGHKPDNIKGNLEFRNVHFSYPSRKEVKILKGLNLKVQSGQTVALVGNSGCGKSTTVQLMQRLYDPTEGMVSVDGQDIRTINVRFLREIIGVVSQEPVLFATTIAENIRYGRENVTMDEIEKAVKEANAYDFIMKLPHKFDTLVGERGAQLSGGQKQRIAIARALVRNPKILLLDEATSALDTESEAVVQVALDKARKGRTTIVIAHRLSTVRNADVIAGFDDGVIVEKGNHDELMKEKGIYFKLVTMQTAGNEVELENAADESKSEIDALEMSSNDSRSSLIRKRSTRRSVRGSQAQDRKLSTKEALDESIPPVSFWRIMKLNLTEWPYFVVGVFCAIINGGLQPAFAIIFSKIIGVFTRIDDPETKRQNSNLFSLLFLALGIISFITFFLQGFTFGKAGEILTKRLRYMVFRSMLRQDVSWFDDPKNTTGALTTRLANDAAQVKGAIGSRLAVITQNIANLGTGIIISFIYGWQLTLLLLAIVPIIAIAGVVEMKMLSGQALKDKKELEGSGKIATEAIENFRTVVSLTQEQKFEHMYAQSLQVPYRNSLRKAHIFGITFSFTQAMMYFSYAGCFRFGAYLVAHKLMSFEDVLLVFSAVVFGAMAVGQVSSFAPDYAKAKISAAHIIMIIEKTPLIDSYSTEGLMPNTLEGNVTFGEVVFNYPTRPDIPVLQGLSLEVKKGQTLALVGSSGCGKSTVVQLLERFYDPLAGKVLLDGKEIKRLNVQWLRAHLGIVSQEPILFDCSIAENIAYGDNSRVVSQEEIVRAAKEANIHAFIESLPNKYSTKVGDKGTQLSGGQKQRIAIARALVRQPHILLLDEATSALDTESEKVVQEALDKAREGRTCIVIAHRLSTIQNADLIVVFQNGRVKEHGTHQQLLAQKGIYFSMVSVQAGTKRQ
Description: Stably transfected G-185 fibroblasts containing hMDR-1 and NIH 3T3 cell lines were grown to confluent monolayers in DMEM containing 4.5 g glucose/1, 10% fetal calf serum, L-glutamine, penicillin (50 units/ml), streptomycin (50 μg/ml) and 1 mM sodium pyruvate in 5% CO2 at 37° C. G-185 cells were maintained in […] colchicine.
The assay for Pgp is based on the diffusion of non-fluorescent calcein AM across the cell membrane. Calcein AM is then hydrolyzed and accumulates as the fluorescent calcein. In transfected cells expressing excess hMDR-1, Pgp extrudes calcein AM from the cell before hydrolysis occurs; inhibition of hMDR-1 results in the accumulation of intracellular calcein. Transfected G-185 cells and the NIH 3T3 cells were analyzed in triplicate using seven graded dosages of verapamil or the opioid peptides in 96-well plates. Cells (2.5×10^6/well) were incubated in 100 μl culture medium for 15 min at 37° C. and 50 μl of 1 μM calcein AM in PBS, plus 50 μl of verapamil or one of the present inventive compounds in PBS, or 100 μl of PBS alone (control) were added. Cells were mixed and incubated for 15 min at 37° C., then centrifuged for 5 min at 2,000×g, and then washed three times in 200 μl PBS. Cell pellets were resuspended in 200 μl PBS and transferred to white Microfluor Plates (Nunc, Copenhagen, Denmark) in order to measure calcein-specific fluorescence (494 nm absorption; 517 nm emission). Internal controls were carried out with each experiment using verapamil and PBS in order to compare the consistency between cell preparations. Means±SE (error bars) were determined and plotted using Prism™ (GraphPad, San Diego, Calif.).

μ receptors [4] = molecular target: T2, μ receptors (Rattus norvegicus, UniProt P33535); test: Radio-receptor competition assay, rat brain synaptosomes, [3H]DAGO (Example 74); format: binding; settings: rat brain P2 synaptosomes, [3H]DAGO; read-out: Receptor affinity (nM) Kiμ
T2 construct: assayed with a rat brain synaptosomal preparation (P2); from tissue; host or cells: rat brain P2 synaptosomes
T2 sequence (P33535 whole entry): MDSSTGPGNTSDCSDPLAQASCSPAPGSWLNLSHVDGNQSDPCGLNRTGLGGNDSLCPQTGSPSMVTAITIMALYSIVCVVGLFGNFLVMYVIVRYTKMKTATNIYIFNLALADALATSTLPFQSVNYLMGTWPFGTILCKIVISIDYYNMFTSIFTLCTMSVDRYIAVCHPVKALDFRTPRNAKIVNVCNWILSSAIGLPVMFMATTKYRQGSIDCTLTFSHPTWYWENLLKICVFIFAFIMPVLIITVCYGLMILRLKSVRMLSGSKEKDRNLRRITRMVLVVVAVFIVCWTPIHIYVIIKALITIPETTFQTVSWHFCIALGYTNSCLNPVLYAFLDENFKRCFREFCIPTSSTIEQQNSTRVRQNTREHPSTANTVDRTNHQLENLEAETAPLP
Description: as §1

δ-opioid receptors [5] = molecular target: T3, δ-opioid receptors (Rattus norvegicus, UniProt P33533); test: Rat brain synaptosome (P2) binding, agonist [3H]DPDPE (Example 47)
T3 construct: assayed with a rat brain synaptosomal preparation (P2); from tissue; host or cells: rat brain P2 synaptosomes
T3 sequence (P33533 whole entry): as the sequence (P33533 whole entry) above
Description: (§2) Briefly, the agonists [^3H]DPDPE (30-60 Ci/mmol, NEN-DuPont) and [^3H]DAGO (30-60 Ci/mmol, Amersham) were used to label δ and μ sites, respectively, under saturation binding conditions (2 hrs at 22° C.). Excess unlabeled peptide (2 μM) established non-specific binding levels and the labeled membranes were rapidly filtered on Whatman GF/C glass fibre filters, thoroughly washed, dried and measured for radioactivity using CytoScint (ICN, Irvine, Calif.). […] The affinity constants (Ki) were calculated according to Cheng and Prusoff (Biochem. Pharmacol. 22: 3099-3108 (1973)).

δ-opioid receptors [6] = molecular target: T3, δ-opioid receptors; test: Rat brain synaptosome (P2) binding, δ antagonist [3H]N,N(CH3)2-Dmt-Tic-OH (Example 47); settings: selectivity; Kiδ from antagonist radioligand [3H]N,N(CH3)2-Dmt-Tic-OH
Description: as §2

μ-opioid receptors = molecular target: T4, μ-opioid receptors (Rattus norvegicus, UniProt P33535); test: Rat brain synaptosome (P2) binding, [3H]DAGO (Example 47); settings: rat brain synaptosomes (P2); mean ± SEM, n in parentheses
T4 construct: assayed with a rat brain synaptosomal preparation (P2); from tissue; host or cells: rat brain P2 synaptosomes
T4 sequence (P33535 whole entry): as the sequence (P33535 whole entry) above

Question: Cc1cc(O)cc(C)c1C[C@H](N)C(=O)N1Cc2ccccc2C[C@H]1C(=O)NCc1nc2ccccc2[nH]1 [Compound 24, H-Dmt-Tic-NH—CH2-Bid] was tested. Which “δ activity on MVD, in words” value (δ receptors [1]) did it give?
Answer: potent δ-agonist activity

Question: And the “MVD, antagonist activity (pA2) N,N(CH3)2-Dmt-Tic-OH” value (δ receptors [1]; pA2 of N,N(CH3)2-Dmt-Tic-OH against the listed δ agonist)?
Answer: 9.70

Question: What about the “MVD, antagonist activity (pA2) naloxone” value (δ receptors [1]; pA2 of naloxone against the listed δ agonist) of the same compound?
Answer: 7.45

Question: And the “Functional Bioactivity MVD (pEC50)” value (δ receptors [1]; δ agonism)?
Answer: 9.90

Question: Cc1cc(O)cc(C)c1C[C@H](N)C(=O)N1Cc2ccccc2C[C@H]1C(=O)NCC(=O)NCc1nc2ccccc2[nH]1 [Compound 26, H-Dmt-Tic-Gly-NH—CH2-Bid] was tested. Which “δ/μ selectivity, in words” value (δ receptors [2]; from Table IV binding) did it give?
Answer: essentially non-selective

Question: What about the μ/δ (δ receptors [2]) of the same compound?
Answer: 353

Question: And the “δ activity on MVD, in words” value (δ receptors [1])?
Answer: potent δ antagonist activity

Question: C[C@@H](NC(=O)[C@@H](N)Cc1ccc(O)cc1)C(=O)N[C@@H](Cc1ccccc1)C(=O)NCC(=O)N[C@@H](Cc1ccc(O)cc1)C(=O)N1CCC[C@H]1C(=O)N[C@@H](CO)C(N)=O [Dermorphin, H-Tyr-D-Ala-Phe-Gly-Tyr-Pro-Ser-NH2] was tested. Which IC50 (μ receptors [3]) did it give?
Answer: 1.82 nM

Question: What about the “inhibition of hMDR-1 (Pgp), in words” value (hMDR-1) of the same compound?
Answer: lack of inhibition

Question: And the “inhibition of hMDR-1 (Pgp), in words” value (hMDR-1; listed as DER)?
Answer: inactive

Question: For Cc1cc(O)cc(C)c1C[C@H](N)C(=O)N1Cc2ccccc2C[C@H]1CO [H-Dmt-Tic-ol, reference compound], which μ/δ (δ receptors [2]) is on record?
Answer: 344

Question: What about the Ki (μ receptors [4]) of the same compound?
Answer: 151 nM

Question: Which Ki (δ-opioid receptors [5]) does the source give for Cc1cc(O)cc(C)c1C[C@@H]1NC(=O)[C@@H]2Cc3ccccc3CN2C1=O [cyclo (DMT-Tic), reference compound] here?
Answer: 9.58 ± 1.98 nM

Question: And the “Agonist K1μ/Kiδ” value (δ-opioid receptors [5]; selectivity, Kiδ from agonist radioligand [3H]DPDPE)?
Answer: 635 ± 69 (3-5)

Question: And the “Antagonist K1μ/Kiδ” value (δ-opioid receptors [6])?
Answer: no activity

Question: What about the “Kiμ (nM) [^3H]DAGO” value (μ-opioid receptors) of the same compound?
Answer: no activity

Question: What about the “inhibition of hMDR-1 (Pgp), in words” value (hMDR-1) of the same compound?
Answer: moderately effective inhibitor

Question: With COc1ccc(CCN(C)CCCC(C#N)(c2ccc(OC)c(OC)c2)C(C)C)cc1OC (stereo not drawn) [verapamil] as the compound, how does the maximum effective dose (hMDR-1) read?
Answer: 75 to 100 µM

Question: H-Dmt-Sar-Bid [DSB] was tested. Which “inhibition of hMDR-1 (Pgp), in words” value (hMDR-1) did it give?
Answer: inactive

Question: How did the “inhibition of hMDR-1 (Pgp), in words” value (hMDR-1) turn out when “H-Tyr-D-Ala-Gly-N-MePhe-Met(O)-ol [DAMME]” was run?
Answer: inactive; also recorded: lack of inhibition

Question: Which “inhibition of hMDR-1 (Pgp), in words” value (hMDR-1) does the source give for deltorphin here?
Answer: lack of inhibition
